Experimental data from ChEMBL document CHEMBL1125373, “Systemic analgesic activity and delta-opioid selectivity in [2,6-dimethyl-Tyr1,D-Pen2,D-Pen5]enkephalin” (J Med Chem, 1992).

What was measured:
Type in all cases: functional
Mus musculus [1] = test: In vivo antinociceptive activity in mice by using hot plate test after intracerebroventricular administration
Mus musculus [2] = test: In vivo antinociceptive activity in mice by using hot plate test after subcutaneous administration; settings: sc
Mus musculus [3] = test: In vivo antinociceptive activity in mice by using PBQ writing test after subcutaneous administration; settings: sc
Mus musculus [4] = organism: Mus musculus; test: In Vitro evaluation for the potency for inhibiting the contraction of the electrically stimulated isolated mouse vas deferens

Row | Structure (SMILES) | ED50 (Mus musculus [1]) | ED50 (Mus musculus [2]) | ED50 (Mus musculus [3]) | EC50 (Mus musculus [4])
1 | CN1CC[C@]23c4c5ccc(O)c4O[C@H]2[C@@H](O)C=C[C@H]3[C@H]1C5 [MORPHINE] | 0.6 µg | 3.2 mg/kg | 0.2 mg/kg | 
2 | Cc1cc(O)cc(C)c1C[C@H](N)C(=O)N[C@H]1C(=O)NCC(=O)N[C@@H](Cc2ccccc2)C(=O)N[C@@H](C(=O)O)C(C)(C)SSC1(C)C [listing 1 of 2 here] |  |  |  | 0.15 nM
3 | CC1(C)SSC(C)(C)[C@@H](NC(=O)[C@@H](N)Cc2ccc(O)cc2)C(=O)NCC(=O)N[C@@H](Cc2ccccc2)C(=O)N[C@H]1C(=O)O | 1.4 µg |  |  | 12.9 nM
4 | Cc1cc(O)cc(C)c1C[C@H](N)C(=O)N[C@H]1C(=O)NCC(=O)N[C@@H](Cc2ccccc2)C(=O)N[C@@H](C(=O)O)C(C)(C)SSC1(C)C [listing 2 of 2 here] | 0.2 µg | 33 mg/kg | 2.6 mg/kg | 
